# Measurements: patent US8735439B2, “Chlorin e6-folic acid conjugate, preparation method thereof, and a pharmaceutical composition for the treatment of cancer comprising the same” (Diatech Korea Co., Ltd., priority 2009, dated 2014)
# Experiments:
# [1] = tested on: HeLa tumor cells; assay: Cytotoxicity (antiproliferative assay) in the absence of light exposure; format: cell-based; settings: for number of HeLa cells: no light, 24 hours
# Procedure: Cytotoxicity was analyzed, considering the intensity of proliferative processes in cells, photosensitizer concentration, and dose of optical power. For each point, 3 flasks with cell monolayer were used.
# The monolayer culture of HeLa tumor cells was chosen and used as the cell.
# The culture of HeLa tumor cells was grown in nutrient medium 199 or in nutrient medium containing hemohydrolyzate supplemented with 10% fetal bovine serum and […] of kanamycin. […]
# Flasks with light-protective cover (dark cytotoxicity) were incubated at 37.5° C. for 1 hour. The cells were washed with Hank's solution 4 times. 2.0 ml of fresh nutrient medium were added, and the cells were irradiated at the temperature of melting ice for 5, 10, 15 or 20 mins by the light flux of a “METALAZ” laser medical device (wavelength: 627.8 nm, 578.2 or 510.6 nm) or “LD 680-2000” (wavelength: 670-690 nm), depending on the wavelength of maximum spectral absorption of the studied photosensitizer, at a dose of 40 J/cm^2. After 20-24 hours, the number of tumor cell was counted in Goriaev's chamber.
# [2] = tested on: Hela cells; assay: Competition assay with exogenous folic acid, uptake in Hela cells; format: cell-based; settings: 4 μM/l folic acid, 24 hours
# Description: Then, the sample was centrifuged, the supernatant was taken, and the pellet was rewashed with cooled Hank's solution. The obtained pellet was again transferred into Hank's solution.
# [3] = Quenching of excited triplet states by molecular oxygen; format: physicochemical
# Description: The data presented in Table 2 supports the analysis of specific features of quenching of excited triplet states of chlorin e6-conjugate by molecular oxygen in solutions and biological systems.
# [4] = Photophysical parameters (triplet state, intercombinative conversion) of chlorin e6 conjugate; format: physicochemical
# Procedure: Values of Δ ? and Δ ? were determined after substantially transferring of all molecules of the studied substance in excited triplet state. In such conditions, ΔD=CΔεTl, wherein C indicates the molar concentration of the substance in solution, and l indicates the length of the optical way. As the standard to estimate γ, Pd(II)-octa ethyl porphyrin (Pd (II)-OEP) was selected, for which the γ value in benzol was considered as equal to one.
# [5] = tested on: Hela cells; assay: Accumulation in Hela cells; format: cell-based; settings: for concentration in Hela cells: 2×10^−5 M/l, 37° C.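 On concentration in Hela cells: measured as suspension fluorescence intensity at excitation 405 nm and emission 665 nm.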
# Procedure: The cellular accumulation and the targeted delivery of the photoactive compounds were investigated using Hela cells, which is one of the numerous tumor cell types that overexpress folate receptors.
# Cells were cultivated for 3 days in medium 199, and transferred to Hank's solution/medium 199 (9/1). After 3 hours, the cell were collected by trypsin treatment from the substrate and placed in Hank's solution (10^5 ? /ml). To cell suspensions, chlorin e6 conjugates were added at a concentration of 2×10^−5 M/l, and incubated at 37° C. After 1, 5, 10, 15, and 24 hours, the samples were centrifuged, the pellet was washed with the cooled Hank's solution, and transferred to Hank's solution at a concentration being equal to that in the initial suspension.
# [6] = target: human serum albumin (Homo sapiens, UniProt P02768); assay: Pigment-protein complex formation with human serum albumin; settings: HSA, number of binding positions n=1
# Description: Pigment-protein complexes have been formed by adding to the solution of human serum albumin (HAS) a specific amount of photosensitizer dissolved in the same buffer. […] Similarly, the photosensitizer was included in detergent micelle (Triton X-100, C=10^−3M).
# wherein r and C are the respectively concentrations of bound and unbound protein pigment, r+C=CΣ. […] It is also applicable with respect to pigment molecules included in Triton X-100 micelle.
# [7] = tested on: sarcoma M-1; assay: Accumulation kinetics of photosensitizer in rats with sarcoma M-1; format: in vivo; settings: rats with sarcoma M-1, 5.0 mg/kg
# Procedure: The experiments were conducted on 100 white outbred rats with subcutaneous transplantation of sarcoma M-1, 7-9 days after tumor transplant. Photosensitizers were introduced to the animals via an intravenous route, once at a dose of 2.5, 5.0 and 10.0 mg/kg in a room with a low level of light. A sterile isotonic solution of sodium chloride was used as a solvent. Follow up over the dynamics of photosensitizer accumulation in tumor and normal tissues was conducted at 30 mins, 1-5 hours, and 1-6 days after photosensitizer administration.
# In tumor tissues of rats with sarcoma M-1 and normal tissues (skin of opposite haunch), the dynamics of photosensitizer accumulation was analyzed by the method of measurement of life time using computer fluorescent spectrophotometry. For this purpose, a laser-fiber spectroanalyzer “LESA-6” with a helium-neon diagnostic laser “LHN 633-25” (BIOSPEC, Moscow) was used. This allows an estimate locally of the level of photosensitizer accumulation in any organs and tissues accessible for an optical fiber probe.
# For real time monitoring at every hour after administration of the drug, the distal end of a catheter was placed over the tumor and normal tissues, and the intensity of the drug accumulation was recorded on the wave length corresponding to maximum fluorescence. […]
# human serum albumin, sequence (P02768 25-609): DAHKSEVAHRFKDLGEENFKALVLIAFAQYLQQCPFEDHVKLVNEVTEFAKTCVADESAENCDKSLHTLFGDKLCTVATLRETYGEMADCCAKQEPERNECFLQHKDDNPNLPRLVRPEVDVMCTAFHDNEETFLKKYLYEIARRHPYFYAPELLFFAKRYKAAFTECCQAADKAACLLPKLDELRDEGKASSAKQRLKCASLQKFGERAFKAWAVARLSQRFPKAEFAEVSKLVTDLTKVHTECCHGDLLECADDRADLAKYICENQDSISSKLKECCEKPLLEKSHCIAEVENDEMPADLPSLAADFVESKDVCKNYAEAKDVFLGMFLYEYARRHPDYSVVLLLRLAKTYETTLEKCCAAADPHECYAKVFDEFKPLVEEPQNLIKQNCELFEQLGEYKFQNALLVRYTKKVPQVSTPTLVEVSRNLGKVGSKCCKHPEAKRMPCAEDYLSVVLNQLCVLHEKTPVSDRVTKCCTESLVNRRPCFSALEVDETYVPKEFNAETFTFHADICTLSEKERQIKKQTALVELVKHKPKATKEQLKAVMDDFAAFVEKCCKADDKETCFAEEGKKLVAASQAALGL
substance,measurement,setting,value
[γ-(6-aminohexyl)folic acid]-chlorin e6 [chlorin e6 conjugate],cell survival rate,"[1]; Hela cells, 24 hr incubation, absence of light exposure",about 90%
same,number of HeLa cells,[1]; photosensitizer conc. 1 (μm),102.1 percentage of the control
same,number of HeLa cells,[1]; photosensitizer conc. 2.5 (μm),95.6 percentage of the control
same,number of HeLa cells,[1]; photosensitizer conc. 5.0 (μm),94.1 percentage of the control
same,number of HeLa cells,[1]; photosensitizer conc. 10.0 (μm),95.9 percentage of the control
same,number of HeLa cells,[1]; photosensitizer conc. 20.0 (μm),89.0 percentage of the control
same,number of HeLa cells,[1]; photosensitizer conc. 30.0 (μm),86.6 percentage of the control
same,effect of free folic acid on uptake in Hela cells,[2],significantly reduced the uptake
same,bi-molecular rate constant for O2 quenching of the triplet excited state,[3]; Pyridine,4.5×10^9 M^−1 c^−1
same,bi-molecular rate constant for O2 quenching of the triplet excited state,[3]; buffer solution,1.5×10^9 M^−1 c^−1
same,bi-molecular rate constant for O2 quenching of the triplet excited state,[3]; lipid bilayer,9×10^9 M^−1 c^−1
same,bi-molecular rate constant for O2 quenching of the triplet excited state,"[3]; micellar complex (Triton X-100), upper limit",1.5×10^9 M^−1 c^−1
same,bi-molecular rate constant for O2 quenching of the triplet excited state,"[3]; pigment-protein complex, upper limit",2.5×10^9 M^−1 c^−1
same,Δε^T,"[4]; H2O, pH 8.1",278 dm^3 mol^−1 cm^−1
same,γ (photoresponse of intercombinative conversion),"[4]; H2O, pH 8.1",0.8
same,"τt (triplet lifetime, oxygen saturated)","[4]; H2O, pH 8.1",2.5 μs
same,"τt^0 (triplet lifetime, deoxygenated)","[4]; H2O, pH 8.1",170 μs
same,Δε^T,"[4]; HSA, H2O, pH 8.1",798 dm^3 mol^−1 cm^−1
same,γ (photoresponse of intercombinative conversion),"[4]; HSA, H2O, pH 8.1",0.82
same,"τt (triplet lifetime, oxygen saturated)","[4]; HSA, H2O, pH 8.1",14.7 μs
same,"τt^0 (triplet lifetime, deoxygenated)","[4]; HSA, H2O, pH 8.1",700 μs
same,Δε^T,"[4]; Liposomes, H2O, pH 8.1",251 dm^3 mol^−1 cm^−1
same,γ (photoresponse of intercombinative conversion),"[4]; Liposomes, H2O, pH 8.1",0.78
same,"τt (triplet lifetime, oxygen saturated)","[4]; Liposomes, H2O, pH 8.1",1.4 μs
same,"τt^0 (triplet lifetime, deoxygenated)","[4]; Liposomes, H2O, pH 8.1",70 μs
same,Δε^T,[4]; Pyridine,94 dm^3 mol^−1 cm^−1
same,γ (photoresponse of intercombinative conversion),[4]; Pyridine,0.81
same,"τt (triplet lifetime, oxygen saturated)",[4]; Pyridine,0.3 μs
same,"τt^0 (triplet lifetime, deoxygenated)",[4]; Pyridine,140 μs
same,"τt (triplet lifetime, oxygen saturated)",[4]; Triton X-100,2.6 μs
same,"τt^0 (triplet lifetime, deoxygenated)",[4]; Triton X-100,230 μs
same,γ (photoresponse of intercombinative conversion),[4]; practically similar in all the systems,≈ 0.7
same,binding with cells over time,[5]; Hela cells,increases linearly over 20 hours
same,accumulation compared with cellular uptake of free chlorin e6,"[5]; Hela cells, after 6 hr incubation",distinctly higher
same,cellular uptake relative to free chlorin e6,"[5]; Hela cells, after 24 hr incubation, on average, listed as chlorin e6-folic acid conjugate",about 10 fold
same,concentration in Hela cells,[5]; incubation 1 hour,0.40 relative units/10^4 cl.
same,concentration in Hela cells,[5]; incubation 5 hours,1.80 relative units/10^4 cl.
same,concentration in Hela cells,[5]; incubation 10 hours,2.50 relative units/10^4 cl.
same,concentration in Hela cells,[5]; incubation 15 hours,12.5 relative units/10^4 cl.
same,concentration in Hela cells,[5]; incubation 24 hours,15.0 relative units/10^4 cl.
same,binding constant κCB with protein,[6],1.2e+06 M⁻¹
same,time of maximum accumulation in tumor tissue,[7],2 to 5 h
